Consider 20 compounds from patent US12685735B2 (Foghorn Therapeutics Inc., priority 2020, dated 2026).

The target of assay [1] is BRM (Homo sapiens, UniProt P51531). The assay can be described thus: ATPase catalytic activity assay of BRM (ADP-Glo). Conditions: for IC50: read-out: BRM IC50 (μM)*. The format is biochemical. The procedure, abridged: (§1)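 Once the enzyme reaction finished, residual ATP is removed with ADP-Glo Reagent over 40 minutes at room temperature. Kinase Detection Reagent then converts product ADP into ATP during a 60-minute room-temperature incubation, and the luciferase signal is read.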

Assay [2] concerns the target BRG-1 (Homo sapiens, UniProt P51532). The assay can be described thus: ATPase catalytic activity assay of BRG-1 (ADP-Glo). It counts as biochemical. Conditions: ATPase catalytic activity, ADP-Glo; for IC50: read-out: BRG1 IC50 (μM)*; for Emax: read-out: BRG1 Max % Inhibition. The procedure, abridged: as §1

Structures are written as SMILES. Some results are limits rather than exact numbers.

Chain of BRM (P51531 whole entry): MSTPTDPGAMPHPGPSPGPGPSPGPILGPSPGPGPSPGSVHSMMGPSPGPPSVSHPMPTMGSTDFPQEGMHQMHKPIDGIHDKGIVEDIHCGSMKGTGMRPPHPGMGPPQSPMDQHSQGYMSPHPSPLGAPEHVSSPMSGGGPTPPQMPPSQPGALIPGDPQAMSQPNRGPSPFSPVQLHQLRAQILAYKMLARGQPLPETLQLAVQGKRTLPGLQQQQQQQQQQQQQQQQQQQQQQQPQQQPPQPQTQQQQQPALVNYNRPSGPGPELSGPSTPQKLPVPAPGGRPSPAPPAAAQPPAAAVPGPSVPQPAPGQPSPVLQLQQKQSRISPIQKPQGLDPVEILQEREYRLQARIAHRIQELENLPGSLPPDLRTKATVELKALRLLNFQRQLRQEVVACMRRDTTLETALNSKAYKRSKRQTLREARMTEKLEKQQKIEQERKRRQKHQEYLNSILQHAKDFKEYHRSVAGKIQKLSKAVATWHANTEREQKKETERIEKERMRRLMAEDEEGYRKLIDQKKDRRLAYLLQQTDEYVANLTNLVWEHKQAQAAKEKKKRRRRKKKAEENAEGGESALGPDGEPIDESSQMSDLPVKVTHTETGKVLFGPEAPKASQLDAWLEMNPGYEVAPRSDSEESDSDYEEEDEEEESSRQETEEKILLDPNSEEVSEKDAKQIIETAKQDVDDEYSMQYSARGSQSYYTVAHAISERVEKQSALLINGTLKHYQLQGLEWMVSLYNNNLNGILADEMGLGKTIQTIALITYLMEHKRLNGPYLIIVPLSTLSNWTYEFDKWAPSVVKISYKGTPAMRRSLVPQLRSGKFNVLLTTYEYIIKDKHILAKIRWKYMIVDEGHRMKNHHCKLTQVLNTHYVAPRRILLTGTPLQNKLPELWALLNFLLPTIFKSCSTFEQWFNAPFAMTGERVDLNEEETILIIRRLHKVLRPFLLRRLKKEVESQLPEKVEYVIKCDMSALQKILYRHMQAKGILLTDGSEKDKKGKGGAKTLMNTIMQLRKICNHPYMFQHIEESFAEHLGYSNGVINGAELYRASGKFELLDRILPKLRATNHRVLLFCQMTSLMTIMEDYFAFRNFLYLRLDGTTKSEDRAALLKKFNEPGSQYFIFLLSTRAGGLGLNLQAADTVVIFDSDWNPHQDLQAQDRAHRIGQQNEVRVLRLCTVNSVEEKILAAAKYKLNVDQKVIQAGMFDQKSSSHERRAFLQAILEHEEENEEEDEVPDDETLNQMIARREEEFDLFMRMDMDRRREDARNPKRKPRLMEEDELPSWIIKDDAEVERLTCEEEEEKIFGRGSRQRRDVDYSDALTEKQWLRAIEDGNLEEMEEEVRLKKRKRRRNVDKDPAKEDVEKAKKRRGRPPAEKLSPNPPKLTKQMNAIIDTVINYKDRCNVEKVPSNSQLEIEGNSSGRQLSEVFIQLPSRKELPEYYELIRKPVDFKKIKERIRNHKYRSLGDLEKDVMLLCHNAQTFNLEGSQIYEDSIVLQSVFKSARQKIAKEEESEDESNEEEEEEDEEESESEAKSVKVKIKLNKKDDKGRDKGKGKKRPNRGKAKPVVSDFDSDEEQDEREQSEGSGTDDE
Chain of BRG-1 (P51532 whole entry): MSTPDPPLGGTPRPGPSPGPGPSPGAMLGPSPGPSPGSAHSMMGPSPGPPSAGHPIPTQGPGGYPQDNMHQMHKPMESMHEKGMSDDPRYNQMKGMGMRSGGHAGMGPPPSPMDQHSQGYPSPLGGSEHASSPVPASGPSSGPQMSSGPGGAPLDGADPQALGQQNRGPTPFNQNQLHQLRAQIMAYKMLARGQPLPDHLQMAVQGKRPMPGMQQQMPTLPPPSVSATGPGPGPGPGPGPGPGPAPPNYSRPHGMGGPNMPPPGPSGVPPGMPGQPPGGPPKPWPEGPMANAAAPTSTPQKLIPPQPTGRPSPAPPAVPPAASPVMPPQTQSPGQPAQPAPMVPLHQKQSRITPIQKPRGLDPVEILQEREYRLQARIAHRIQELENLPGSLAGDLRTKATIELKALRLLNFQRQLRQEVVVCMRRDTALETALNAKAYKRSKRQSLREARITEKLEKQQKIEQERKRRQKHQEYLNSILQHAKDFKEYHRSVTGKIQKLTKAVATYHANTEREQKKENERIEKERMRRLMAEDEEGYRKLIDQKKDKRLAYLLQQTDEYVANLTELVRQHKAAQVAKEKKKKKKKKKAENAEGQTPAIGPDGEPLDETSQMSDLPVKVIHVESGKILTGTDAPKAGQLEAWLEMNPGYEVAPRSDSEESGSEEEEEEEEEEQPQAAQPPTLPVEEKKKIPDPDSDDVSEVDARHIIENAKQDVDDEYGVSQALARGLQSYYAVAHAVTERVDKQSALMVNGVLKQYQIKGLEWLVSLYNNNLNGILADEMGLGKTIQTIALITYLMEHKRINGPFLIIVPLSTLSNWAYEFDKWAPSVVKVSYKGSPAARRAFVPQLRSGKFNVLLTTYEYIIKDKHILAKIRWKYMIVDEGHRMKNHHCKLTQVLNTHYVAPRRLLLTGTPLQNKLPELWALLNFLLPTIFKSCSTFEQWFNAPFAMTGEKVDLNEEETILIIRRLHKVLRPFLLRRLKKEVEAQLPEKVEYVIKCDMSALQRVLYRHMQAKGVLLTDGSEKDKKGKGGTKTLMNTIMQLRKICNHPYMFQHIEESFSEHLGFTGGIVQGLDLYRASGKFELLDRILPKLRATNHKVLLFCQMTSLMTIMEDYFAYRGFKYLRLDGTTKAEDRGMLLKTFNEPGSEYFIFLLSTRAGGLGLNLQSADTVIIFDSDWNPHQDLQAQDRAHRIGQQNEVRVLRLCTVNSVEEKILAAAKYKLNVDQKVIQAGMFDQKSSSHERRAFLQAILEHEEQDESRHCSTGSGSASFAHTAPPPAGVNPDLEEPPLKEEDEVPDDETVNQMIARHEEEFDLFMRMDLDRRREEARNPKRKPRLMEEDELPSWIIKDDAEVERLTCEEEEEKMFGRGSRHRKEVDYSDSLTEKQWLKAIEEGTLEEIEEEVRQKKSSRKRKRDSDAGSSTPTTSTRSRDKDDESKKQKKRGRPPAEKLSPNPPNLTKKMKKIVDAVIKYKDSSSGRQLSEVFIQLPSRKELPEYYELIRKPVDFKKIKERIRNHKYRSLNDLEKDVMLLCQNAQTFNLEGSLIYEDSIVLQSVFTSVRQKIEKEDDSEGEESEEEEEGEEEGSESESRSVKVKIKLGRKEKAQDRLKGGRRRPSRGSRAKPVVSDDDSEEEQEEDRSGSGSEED

`Cc1cc(-c2cccc(-c3csc(NC(=O)CNC(=O)c4ccc(Cl)c(C(C)(C)CO)c4)n3)n2)ncn1` [Compound 216, 4-chloro-3-(2-hydroxy-1,1-dimethyl-ethyl)-N-[2-[[4-[6-(6-methylpyrimidin-4-yl)-2-pyridyl]thiazol-2-yl]amino]-2-oxo-ethyl]benzamide]: in assay [1], the “BRM Max % Inhibition” value is listed as greater than 95% and the IC50 is less than 0.1 µM. In addition, in assay [2], the IC50 lay in the range of 0.1 to 1 µM and the Emax was greater than 95%.

For `C[C@@H]1CN(c2cccc(-c3csc(NC(=O)CNC(=O)c4cccc(C(C)(C)C)c4)n3)c2)C[C@H](C)O1` [Compound 217, 3-tert-butyl-N-[2-[[4-[3-[(cis)-2,6-dimethylmorpholin-4-yl]phenyl]thiazol-2-yl]amino]-2-oxo-ethyl]benzamide], in assay [1], the “BRM Max % Inhibition” value was greater than 95% and the IC50 is less than 0.1 µM. Further, in assay [2], the IC50 lay within 0.1 to 1 µM and the Emax is greater than 90%.

Consider `C[C@@H]1CN(c2cccc(-c3csc(NC(=O)CNC(=O)c4ccc5c(c4)[C@](C)(CO)CC5)n3)c2)C[C@H](C)O1` [Compound 218, (R)-N-(2-((4-(3-((cis)-2,6-dimethylmorpholino)phenyl)thiazol-2-yl)amino)-2-oxoethyl)-3-(hydroxymethyl)-3-methyl-2,3-dihydro-1H-indene-5-carboxamide], for which, in assay [1], the “BRM Max % Inhibition” value was greater than 90% and the IC50 lay in the range of 0.1 to 1 µM. In assay [2], the IC50 lay within 1 to 5 µM and the Emax is greater than 80%.

As to `C[C@@H]1CN(c2cccc(-c3csc(NC(=O)CNC(=O)c4ccc5c(c4)[C@@](C)(CO)CC5)n3)c2)C[C@H](C)O1` [Compound 219, (S)-N-(2-((4-(3-((cis)-2,6-dimethylmorpholino)phenyl)thiazol-2-yl)amino)-2-oxoethyl)-3-(hydroxymethyl)-3-methyl-2,3-dihydro-1H-indene-5-carboxamide], in assay [1], the “BRM Max % Inhibition” value is recorded as greater than 95% and the IC50 was less than 0.1 µM. Moreover, in assay [2], the IC50 fell in the range of 0.1 to 1 µM and the Emax was greater than 90%.

Regarding `Cc1nccc(-c2cccc(-c3csc(NC(=O)CNC(=O)c4cccc(C(C)(C)CO)c4)n3)n2)n1` [Compound 222, 3-(2-hydroxy-1,1-dimethyl-ethyl)-N-[2-[[4-[6-(2-methylpyrimidin-4-yl)-2-pyridyl]thiazol-2-yl]amino]-2-oxo-ethyl]benzamide], in assay [1], the “BRM Max % Inhibition” value is greater than 95% and the IC50 is less than 0.1 µM. Also, in assay [2], the IC50 is 0.1 to 1 µM and the Emax is greater than 80%.

With `C[C@@H]1CN(c2cccc(-c3csc(NC(=O)CNC(=O)c4ccc5c(c4)[C@](C)(CO)CC5)n3)n2)C[C@H](C)O1` [Compound 223, (R)-N-(2-((4-(6-((cis)-2,6-dimethylmorpholino)pyridin-2-yl)thiazol-2-yl)amino)-2-oxoethyl)-3-(hydroxymethyl)-3-methyl-2,3-dihydro-1H-indene-5-carboxamide], in assay [1], the “BRM Max % Inhibition” value is reported as greater than 95% and the IC50 is less than 0.1 µM. In assay [2], the IC50 lay within 1 to 5 µM and the Emax was greater than 80%.

For the compound `C[C@@H]1CN(c2cccc(-c3csc(NC(=O)CNC(=O)c4ccc5c(c4)[C@@](C)(CO)CC5)n3)n2)C[C@H](C)O1` [Compound 224, (3S)-N-[2-[[4-[6-[(cis)-2,6-dimethylmorpholin-4-yl]-2-pyridyl]thiazol-2-yl]amino]-2-oxo-ethyl]-3-(hydroxymethyl)-3-methyl-indane-5-carboxamide], in assay [1], the “BRM Max % Inhibition” value is reported as greater than 95% and the IC50 was less than 0.1 µM. Moreover, in assay [2], the IC50 lay within 0.1 to 1 µM and the Emax is greater than 95%.

For the compound `Cc1cc(-c2cccc(-c3csc(NC(=O)CNC(=O)c4ccc5c(c4)[C@](C)(CN)CCC5)n3)c2)cc(C)n1` [Compound 225, (4R)-4-(aminomethyl)-N-[2-[[4-[3-(2,6-dimethyl-4-pyridyl)phenyl]thiazol-2-yl]amino]-2-oxo-ethyl]-4-methyl-tetralin-6-carboxamide], in assay [1], the “BRM Max % Inhibition” value is on record as greater than 80% and the IC50 lay within 0.1 to 1 µM. In addition, in assay [2], the IC50 is greater than 5 µM and the Emax was greater than 40%.

For the compound `C[C@]1(CO)CCc2c(C(=O)NCC(=O)Nc3nc(-c4cccc(-c5ccncc5)c4)cs3)cccc21` [Compound 226, (S)-1-(hydroxymethyl)-1-methyl-N-(2-oxo-2-((4-(3-(pyridin-4-yl)phenyl)thiazol-2-yl)amino)ethyl)-2,3-dihydro-1H-indene-4-carboxamide], in assay [1], the “BRM Max % Inhibition” value is reported as greater than 95% and the IC50 lay in the range of 0.1 to 1 µM. Moreover, in assay [2], the IC50 was 1 to 5 µM and the Emax was greater than 70%.

Turning to `Cc1cc(-c2cccc(-c3csc(NC(=O)CNC(=O)c4ccc5c(c4)[C@@](C)(CO)CC5)n3)c2)nc(C)n1` [Compound 227, (3S)-N-[2-[[4-[3-(2,6-dimethylpyrimidin-4-yl)phenyl]thiazol-2-yl]amino]-2-oxo-ethyl]-3-(hydroxymethyl)-3-methylindane-5-carboxamide], in assay [1], the “BRM Max % Inhibition” value is greater than 95% and the IC50 is less than 0.1 µM. Besides, in assay [2], the IC50 is less than 0.1 µM and the Emax was greater than 95%.

`Cc1cc(-c2cccc(-c3csc(NC(=O)CNC(=O)c4ccc5c(c4)[C@](C)(CO)CC5)n3)c2)nc(C)n1` [Compound 228, (3R)-N-[2-[[4-[3-(2,6-dimethylpyrimidin-4-yl)phenyl]thiazol-2-yl]amino]-2-oxo-ethyl]-3-(hydroxymethyl)-3-methyl-indane-5-carboxamide]: in assay [1], the “BRM Max % Inhibition” value is listed as greater than 95% and the IC50 was less than 0.1 µM. In addition, in assay [2], the IC50 was less than 0.1 µM and the Emax is greater than 95%.

As for `Cc1cc(-c2cccc(-c3csc(NC(=O)CNC(=O)c4cccc(C(C)(C)CO)c4)n3)n2)ncn1` [Compound 230, 3-(2-hydroxy-1,1-dimethyl-ethyl)-N-[2-[[4-[6-(6-methylpyrimidin-4-yl)-2-pyridyl]thiazol-2-yl]amino]-2-oxo-ethyl]benzamide], in assay [1], the “BRM Max % Inhibition” value is given as greater than 95% and the IC50 was less than 0.1 µM. In addition, in assay [2], the IC50 fell in the range of 0.1 to 1 µM and the Emax is greater than 80%.

As to `Cc1cc(-c2cccc(-c3csc(NC(=O)CNC(=O)c4ccc5c(c4)[C@@](C)(CO)CCC5)n3)c2)cc(C)n1` [Compound 231, (S)-N-(2-((4-(3-(2,6-dimethylpyridin-4-yl)phenyl)thiazol-2-yl)amino)-2-oxoethyl)-8-(hydroxymethyl)-8-methyl-5,6,7,8-tetrahydronaphthalene-2-carboxamide], in assay [1], the “BRM Max % Inhibition” value is given as greater than 95% and the IC50 is less than 0.1 µM. Also, in assay [2], the IC50 lay within 0.1 to 1 µM and the Emax was greater than 80%.

`Cc1cc(-c2cccc(-c3csc(NC(=O)CNC(=O)c4ccc5c(c4)[C@](C)(CO)CCC5)n3)c2)cc(C)n1` [Compound 232, (R)-N-(2-((4-(3-(2,6-dimethylpyridin-4-yl)phenyl)thiazol-2-yl)amino)-2-oxoethyl)-8-(hydroxymethyl)-8-methyl-5,6,7,8-tetrahydronaphthalene-2-carboxamide]: in assay [1], the “BRM Max % Inhibition” value was greater than 95% and the IC50 was less than 0.1 µM. Moreover, in assay [2], the IC50 was in the range of 0.1 to 1 µM and the Emax is greater than 80%.

`CC1(CO)CCc2ccc(C(=O)NCC(=O)Nc3nc(-c4cccc(-c5cccc(C#N)c5)c4)cs3)cc21` (centres unmarked) [Compound 233, N-[2-[[4-[3-(3-cyanophenyl)phenyl]thiazol-2-yl]amino]-2-oxo-ethyl]-3-(hydroxymethyl)-3-methyl-indane-5-carboxamide]: in assay [1], the “BRM Max % Inhibition” value is given as greater than 95% and the IC50 is less than 0.1 µM. In addition, in assay [2], the IC50 was 0.1 to 1 µM and the Emax is greater than 80%.

For the compound `Cc1ccc(C(=O)NCC(=O)Nc2nc(-c3cccc(N4C[C@@H](C)O[C@@H](C)C4)n3)cs2)cc1C(C)(C)CO` [Compound 237, N-(2-((4-(6-((cis)-2,6-dimethylmorpholino)pyridin-2-yl)thiazol-2-yl)amino)-2-oxoethyl)-3-(1-hydroxy-2-methylpropan-2-yl)-4-methylbenzamide], in assay [1], the “BRM Max % Inhibition” value is greater than 95% and the IC50 was less than 0.1 µM. Moreover, in assay [2], the IC50 lay in the range of 0.1 to 1 µM and the Emax was greater than 90%.

In the case of `Cc1ccc(C(=O)NCC(=O)Nc2nc(-c3cccc(N4C[C@@H](C)O[C@@H](C)C4)c3)cs2)cc1C(C)(C)CO` [Compound 238, N-(2-((4-(3-((cis)-2,6-dimethylmorpholino)phenyl)thiazol-2-yl)amino)-2-oxoethyl)-3-(1-hydroxy-2-methylpropan-2-yl)-4-methylbenzamide], in assay [1], the “BRM Max % Inhibition” value is greater than 95% and the IC50 is less than 0.1 µM. For the same compound, in assay [2], the IC50 lay in the range of 0.1 to 1 µM and the Emax was greater than 90%.

In the case of `C[C@@H]1CN(c2cccc(-c3csc(NC(=O)CNC(=O)c4ccc(Cl)c(C(C)(C)CO)c4)n3)n2)C[C@H](C)O1` [Compound 241, 4-chloro-N-[2-[[4-[6-[(cis)-2,6-dimethylmorpholin-4-yl]-2-pyridyl]thiazol-2-yl]amino]-2-oxo-ethyl]-3-(2-hydroxy-1,1-dimethyl-ethyl)benzamide], in assay [1], the “BRM Max % Inhibition” value is recorded as greater than 95% and the IC50 was less than 0.1 µM. Besides, in assay [2], the IC50 was in the range of 0.1 to 1 µM and the Emax is greater than 90%.

As for `CCC(C)(CO)c1cccc(C(=O)NCC(=O)Nc2nc(-c3cccc(-c4ccncc4)c3)cs2)c1` (centres unmarked) [Compound 242, 3-[1-(hydroxymethyl)-1-methyl-propyl]-N-[2-oxo-2-[[4-[3-(4-pyridyl)phenyl]thiazol-2-yl]amino]ethyl]benzamide], in assay [1], the “BRM Max % Inhibition” value is greater than 80% and the 50% inhibitory concentration (IC50) was 0.1 to 1 µM. In assay [2], the IC50 was 1 to 5 µM and the Emax is greater than 50%.

On to `C[C@]1(CN)CCc2c(C(=O)NCC(=O)Nc3nc(-c4cccc(-c5ccncc5)c4)cs3)cccc21` [Compound 243, (1S)-1-(aminomethyl)-1-methyl-N-[2-oxo-2-[[4-[3-(4-pyridyl)phenyl]thiazol-2-yl]amino]ethyl]indane-4-carboxamide], for which, in assay [1], the “BRM Max % Inhibition” value is listed as greater than 80% and the IC50 lay within 0.1 to 1 µM. For the same compound, in assay [2], the IC50 was 1 to 5 µM and the Emax was greater than 50%.
